# Source: patent US11351268B2, “FGF21 C-terminal peptide optimization” (INDIANA UNIVERSITY RESEARCH AND TECHNOLOGY CORPORATION, priority 2016, dated 2022)
# Non-standard residues stand in square brackets, D forms with d. Residues, ends and D or L forms follow the SMILES beside them. No end group written: not given here.
# Target: T1, Klotho β (KLB) (Homo sapiens, UniProt Q86Z14)
# T1 construct: expressed in transfected cells; host or cells: HEK 293T (ATCC), pooled Zeocin-selected cells stably expressing hKLB from pcDNA3.1(+)
# T1 sequence (Q86Z14 1-1044): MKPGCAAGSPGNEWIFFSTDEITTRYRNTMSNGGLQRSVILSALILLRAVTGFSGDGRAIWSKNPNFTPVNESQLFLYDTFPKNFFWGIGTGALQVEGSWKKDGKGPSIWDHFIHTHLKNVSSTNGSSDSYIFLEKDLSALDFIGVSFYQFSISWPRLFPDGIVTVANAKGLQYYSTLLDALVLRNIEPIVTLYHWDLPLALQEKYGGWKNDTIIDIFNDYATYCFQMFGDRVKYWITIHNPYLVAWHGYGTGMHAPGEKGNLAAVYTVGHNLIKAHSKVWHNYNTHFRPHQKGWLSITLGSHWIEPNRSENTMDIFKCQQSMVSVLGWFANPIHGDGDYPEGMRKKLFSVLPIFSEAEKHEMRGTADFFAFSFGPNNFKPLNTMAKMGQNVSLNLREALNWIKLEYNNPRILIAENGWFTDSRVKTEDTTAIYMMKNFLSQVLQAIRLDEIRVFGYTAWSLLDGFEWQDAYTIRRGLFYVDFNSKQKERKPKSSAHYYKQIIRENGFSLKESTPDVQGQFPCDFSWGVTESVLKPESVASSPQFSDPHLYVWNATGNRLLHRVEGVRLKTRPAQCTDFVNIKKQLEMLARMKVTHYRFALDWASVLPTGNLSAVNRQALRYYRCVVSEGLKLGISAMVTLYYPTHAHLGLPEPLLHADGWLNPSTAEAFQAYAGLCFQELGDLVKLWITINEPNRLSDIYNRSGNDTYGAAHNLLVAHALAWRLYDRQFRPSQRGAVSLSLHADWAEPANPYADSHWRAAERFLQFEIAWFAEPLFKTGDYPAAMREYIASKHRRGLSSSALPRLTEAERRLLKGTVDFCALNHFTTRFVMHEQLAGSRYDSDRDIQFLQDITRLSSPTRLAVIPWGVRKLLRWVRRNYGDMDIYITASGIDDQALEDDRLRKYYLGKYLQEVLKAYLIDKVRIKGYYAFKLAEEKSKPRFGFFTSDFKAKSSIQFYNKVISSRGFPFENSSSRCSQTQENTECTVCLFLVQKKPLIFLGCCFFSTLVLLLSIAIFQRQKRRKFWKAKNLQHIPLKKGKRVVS
# Experiment: cell-based
# Format: cell-based
# Settings: for Emax: Table 1, native sequence = 100% response, read-out: % max activity; for antagonism of FGF21 activity (in words): 10 nM FGF21 stimulation, 293 HEK hKLB cells; for % Activity vs C25: Table 3, D-amino acid scan, C25 = 100
# Protocol: Cells were cultured in 10% Fetal Bovine Serum containing DMEM High glucose GLUTAMAX® at 37 C, 95% humidity, 5% CO2. For generating the cell line with stable expression, human KLB gene was synthesized by Genscript and subcloned into pcDNA3.1(+) with ZEOCIN® resistance vector (INVITROGEN®) by NheI and NotI restriction enzyme sites. HEK 293T cells were obtained from ATCC and were transiently transfected at 80% confluency using Lipofectamine 3000 (Invitrogen). Selection for KLB-expressing cells was initiated 48 hours post-transfection in the growth media containing 100 μg/ml of ZEOCIN® (Gibco) and continued for 4 weeks with fresh media added every third day. Human KLB expression in pooled cells was confirmed by Western blot and a functional FGF21 MAPK phosphorylation assay.
# 293 HEK cells expressing hKLB were plated to 90% confluency in 96 well plates coated with poly-D-Lysine. Cells were serum starved for three hours in 0.1% BSA containing media prior to stimulation with protein and/or an antagonist peptide for ten minutes at 37° C. The cell lysate was used for the detection of phospho-Erk1/2 levels by AlphaSureFire kit using the prescribed protocol. The degree of biochemical activation was recorded and analyzed using Origin software by logistic curve fitting. Tests at each concentration were done in triplicates, and the standard deviation is as shown in the graphs. The calculation of maximal activities was done keeping the FGF21 157-181 or FGF19 169-194 peptide activity as standard. The difference between the Erk1/2 phosphorylation signal for the highest (10 μM) and the lowest (0 μM) tested dose for native peptide was considered as 100% and accordingly all the other values were assigned.
# [1] = Table 1, alanine scan of FGF21 25mer, antagonism of native FGF21 response
# [2] = Table 2(A), FGF21 157-181 alanine mutants, ≥95% maximal activity
# [3] = Table 6, derivatives of SEQ ID NO: 180
# [4] = Table 5, FGF19/FGF21 chimeric peptides
# [5] = FIG. 8B, FGF21 and FGF19 C-terminal peptides
compound,measurement,setting,value
"PPDVGSSDPLSMVGPSQGRSPSYAA-NH2 (C-terminus assumed) [Peptide A25, PPDVGSSDPLSMVGPSQGRSPSYAA]",% max activity,,99.0%
"PPDVGSSDPLSMVGPSQGRSASYAS-NH2 (C-terminus assumed) [Peptide A21, PPDVGSSDPLSMVGPSQGRSASYAS]",Emax,,70.5%
"PPDAGSSDPLSMVGPSQGRSPSYAS-NH2 (C-terminus assumed) [Peptide A4, PPDAGSSDPLSMVGPSQGRSPSYAS]",Emax,,63.6%
"PPDVGSSDPLSMVGPSQGASPSYAS-NH2 (C-terminus assumed) [Peptide A19, PPDVGSSDPLSMVGPSQGASPSYAS]",IC50,[1],0.102 µM
same,Emax,,100%
"FGF21 162-181: C-terminal fragment of FGF21, residues 162-181 (SSDPLSMVGPSQGRSPSYAS) [reference compound]",antagonism of FGF21 activity (in words),,non-functional
"PPDVGSSDPASMVGPSQGRSPSYAS-NH2 (C-terminus assumed) [Peptide A10, PPDVGSSDPASMVGPSQGRSPSYAS]",Emax,,76%
"PPDVGSSDPLSMVGPSQARSPSYAS-NH2 (C-terminus assumed) [Peptide A18, PPDVGSSDPLSMVGPSQARSPSYAS]",% max activity,,102.9%
same,IC50,[1],0.139 µM
same,IC50,[2],0.15 µM
"PPDVGSSDPLSMVGPSQGRSPAYAS-NH2 (C-terminus assumed) [Peptide A22, PPDVGSSDPLSMVGPSQGRSPAYAS]",Emax,,78.5%
"CSCC[C@H](NC(=O)[C@H](CO)NC(=O)[C@H](CC(C)C)NC(=O)[C@@H]1CCCN1C(=O)[C@H](CC(=O)O)NC(=O)[C@H](CO)NC(=O)[C@H](CO)NC(=O)CNC(=O)[C@@H](NC(=O)[C@H](CC(=O)O)NC(=O)[C@@H]1CCCN1C(=O)[C@@H]1CCCN1)C(C)C)C(=O)N[C@H](C(=O)NCC(=O)N1CCC[C@H]1C(=O)N[C@@H](CO)C(=O)N[C@@H](CCC(N)=O)C(=O)NCC(=O)N[C@@H](CCCNC(=N)N)C(=O)N[C@@H](CO)C(=O)N1CCC[C@H]1C(=O)N[C@@H](CO)C(=O)N[C@@H](Cc1ccc(O)cc1)C(=O)N[C@@H](C)C(=O)N[C@H](CO)C(N)=O)C(C)C [d25, PPDVG SSDPL SMVGP SQGRS PSYAs] (H-PPDVGSSDPLSMVGPSQGRSPSYA[dS]-NH2; N-terminus and C-terminus assumed)",IC50,"Table 3, D-amino acid scan of FGF21 C-terminal 25mer",0.264 ± 0.12 µM
PPDVGSSDPFGLVGPSQGRSPSFEA-NH2 (C-terminus assumed) [Peptide 0486],IC50,[3],0.0047 ± 0.0016 µM
"PPDVGSSDPLAMVGPSQGRSPSYAS-NH2 (C-terminus assumed) [Peptide A11, PPDVGSSDPLAMVGPSQGRSPSYAS]",IC50,[1],0.102 µM
same,Emax,,98%
same,IC50,[2],0.15 µM
"PPDVGSSDPLSMVAPSQGRSPSYAS-NH2 (C-terminus assumed) [Peptide A14, PPDVGSSDPLSMVAPSQGRSPSYAS]",% max activity,,97.7%
same,IC50,[2],0.13 µM
PPDVGSSDPLSMVTGLEAVRSPSFEA-NH2 (C-terminus assumed) [Peptide 0435],IC50,[4],0.0651 ± 0.0048 µM
PPDVLSMDPFGLVGPSQGRSPSFEA-NH2 (C-terminus assumed) [Peptide 0481],IC50,[3],0.0026 ± 0.0008 µM
"FGF21 160-181: C-terminal fragment of FGF21 described as 24-amino acid (VGSSDPLSMVGPSQGRSPSYAS; UniProt Q9NSA1 188-209, looked up, fragment) [reference compound]",antagonism of FGF21 activity (in words),,dramatically improved its antagonistic potential
PLETDSSDPLSMVTGLEAVRSPSYAA-NH2 (C-terminus assumed) [Peptide 0434],IC50,[4],0.264 ± 0.0788 µM
"PPDVGSSDPLSMVGPSQGRAPSYAS-NH2 (C-terminus assumed) [Peptide A20, PPDVGSSDPLSMVGPSQGRAPSYAS]",Emax,,73.5%
"PPDVGSSDPLSMVGPSQGRSPSYAS-NH2 [Peptide C25, PPDVGSSDPLSMVGPSQGRSPSYAS, reference compound]",% max activity,,100.0%
same,IC50,[5],0.04 µM
same,IC50,[4],0.116 ± 0.004 µM
"CSCC[C@H](NC(=O)[C@H](CO)NC(=O)[C@H](CC(C)C)NC(=O)[C@@H]1CCCN1C(=O)[C@H](CC(=O)O)NC(=O)[C@H](CO)NC(=O)[C@H](CO)NC(=O)CNC(=O)[C@@H](NC(=O)[C@H](CC(=O)O)NC(=O)[C@@H]1CCCN1C(=O)[C@@H]1CCCN1)C(C)C)C(=O)N[C@H](C(=O)NCC(=O)N1CCC[C@H]1C(=O)N[C@@H](CO)C(=O)N[C@@H](CCC(N)=O)C(=O)NCC(=O)N[C@H](CCCNC(=N)N)C(=O)N[C@@H](CO)C(=O)N1CCC[C@H]1C(=O)N[C@@H](CO)C(=O)N[C@@H](Cc1ccc(O)cc1)C(=O)N[C@@H](C)C(=O)N[C@@H](CO)C(N)=O)C(C)C [d19, PPDVG SSDPL SMVGP SQGrS PSYAS] (H-PPDVGSSDPLSMVGPSQG[dR]SPSYAS-NH2; N-terminus and C-terminus assumed)",% Activity vs C25,,270.70 ± 136.83%
same,fold increase of antagonistic potency over the native peptide,relative to native C-terminal peptide,2 fold
"FGF21 (amino acids 153-181): C-terminal peptide of FGF21, amino acids 153-181 (LAPQPPDVGSSDPLSMVGPSQGRSPSYAS) [reference compound]",antagonism of FGF21 activity (in words),,exhibit antagonism to FGF21 activity
"CSCC[C@H](NC(=O)[C@H](CO)NC(=O)[C@H](CC(C)C)NC(=O)[C@@H]1CCCN1C(=O)[C@H](CC(=O)O)NC(=O)[C@H](CO)NC(=O)[C@H](CO)NC(=O)CNC(=O)[C@@H](NC(=O)[C@H](CC(=O)O)NC(=O)[C@@H]1CCCN1C(=O)[C@@H]1CCCN1)C(C)C)C(=O)N[C@H](C(=O)NCC(=O)N1CCC[C@H]1C(=O)N[C@@H](CO)C(=O)N[C@@H](CCC(N)=O)C(=O)NCC(=O)N[C@@H](CCCNC(=N)N)C(=O)N[C@@H](CO)C(=O)N1CCC[C@@H]1C(=O)N[C@@H](CO)C(=O)N[C@@H](Cc1ccc(O)cc1)C(=O)N[C@@H](C)C(=O)N[C@@H](CO)C(N)=O)C(C)C [d21, PPDVG SSDPL SMVGP SQGRS pSYAS] (H-PPDVGSSDPLSMVGPSQGRS[dP]SYAS-NH2; N-terminus and C-terminus assumed)",% Activity vs C25,,3.80 ± 0.87%
PLETDSMDPFGLVTGLEAVRSPSFES-NH2 (C-terminus assumed) [Peptide K194S],IC50,"FIG. 8A, substitutions at terminal position of FGF19 169-194 peptide",0.0223 µM
PPDVGSMDPFGLVGRSQGRSPSFEA-NH2 (C-terminus assumed) [Peptide 0470],IC50,[3],0.0049 ± 0.0011 µM
"FGF19 (amino acids 165-194): C-terminal peptide of FGF19, amino acids 165-194 (FLPMLPMVPEEPEDLRGHLESDMFSSPLET) [reference compound]",antagonism of FGF21 activity (in words),,exhibit antagonism to FGF21 activity
"PLETDSMDPFGLVTGLEAVRSPSFEK-NH2 (C-terminus assumed) [FGF19 WT, reference compound]",IC50,[5],0.05 µM
same,IC50,"Table 2(A), FGF19 169-194 alanine mutants, ≥95% maximal activity",0.27 ± 0.09 µM
"PPDVGSADPLSMVGPSQGRSPSYAS-NH2 (C-terminus assumed) [Peptide A7, PPDVGSADPLSMVGPSQGRSPSYAS]",Emax,,94.5%
"PPDVGSSDPLSMVGASQGRSPSYAS-NH2 (C-terminus assumed) [Peptide A15, PPDVGSSDPLSMVGASQGRSPSYAS]",Emax,,93.9%
same,IC50,[2],0.12 µM
